Data on 20 molecules can be found in EP0345356A1, “PLATINUM COMPLEX AND THERAPEUTIC AGENT FOR MALIGNANT TUMOR” (TORAY INDUSTRIES, INC., priority 1987, dated 1989).

Values joined by “and” are separate entries in the source; they are usually repeats but may differ in a detail not shown here. Identical values can stand only once.

Data set [1] deals with L1210 murine leukemia cells. The data set can be described thus: Antitumor activity against L1210 leukemia in mice. Type of data set: in vivo, CDF1 mice. Particulars: for Survival days (mean ± SD) / T/C (%): given on 1st, 5th and 9th days after tumor inoculation; for Survival rate: number of 30 days survival mice / group. Here is the method: L1210 murine leukemia cells which were subcultured in DBA/2 mouse were inoculated intraperitoneally into CDF1 mice at 10^5 cells/mouse. Each experimental group was composed of 6-10 mice (male, 6-weeks old). Each test compound was administered three times, i.e., on the 1st, 5th and 9th days after tumor inoculation. […] Each compound was dissolved or suspended in 0.05% "Tween 80" solution and administered in mice.

Another data set concerns Slc:ICR mice. Description: Acute toxicity test in mice (LD50, Miller-Tainter method). Type of data set: in vivo. The note with it: intraperitoneal, Slc:ICR mice (male), death rate on the 14th day. Here is the method:
Platinum complexes to be tested was administered intraperitoneally to Slc:ICR mice (male, 5 weeks old, 6 mice/group). Each complex was used in the form of a solution or suspension in a 0.05% "Tween 80" in saline. The LD50 value was calculated by the Miller-Tainter method from the death rate on the 14th day from the date of the administration.

For `NC1CCCCC1N.O=C([O-])c1ccco1.O=C([O-])c1ccco1.[Pt+2]` (stereo not drawn) [XXIV-1, Bis(2-furancarboxylato)(trans-ℓ-dach)platinum(II)], the “Survival days (mean ± SD)” value in data set [1] (Dose 1 mg/kg) came out at 9.5 ± 0.8 days; in data set [1] (Dose 10 mg/kg), 14.2 ± 2.9 days; in data set [1] (Dose 25 mg/kg), 20.2 ± 4.9 days; in data set [1] (Dose 50 mg/kg), 17.3 ± 6.3 days; in data set [1] (Dose 100 mg/kg) it was 9.0 ± 1.5 days; in data set [1] (Dose 200 mg/kg), 6.0 days. For the same molecule, the “T/C (%)” value in data set [1] (Dose 1 mg/kg) was 117%; in data set [1] (Dose 10 mg/kg) it was 175%; in data set [1] (Dose 25 mg/kg) it was 249%; in data set [1] (Dose 50 mg/kg) it was 214%; in data set [1] (Dose 100 mg/kg), 111%; in data set [1] (Dose 200 mg/kg), 74%. The Survival rate in data set [1] (Dose 1 mg/kg) is recorded as 0/6; in data set [1] (Dose 10 mg/kg) it was 0/6; in data set [1] (Dose 25 mg/kg), 1/6; in data set [1] (Dose 50 mg/kg) it was 1/6; in data set [1] (Dose 100 mg/kg) it was 0/6; in data set [1] (Dose 200 mg/kg), 0/6. The LD50 values in the data set with Slc:ICR mice turned out to be 87 mg/kg.

With `NC1CCCCC1N.O=C([O-])CCc1ccc(O)cc1.O=C([O-])CCc1ccc(O)cc1.[Pt+2]` [XXXIV-1, Bis(3-(4-hydroxyphenyl)propionato)(trans-ℓ-dach)-platinum(II)], in the data set with Slc:ICR mice, the LD50 values was 90 mg/kg.

With `N.N.[Cl][Pt][Cl]` [C D D P, cis-diamminedichloro platinum(II), reference compound], the “Survival days (mean ± SD)” value in data set [1] (Dose 0.5 mg/kg) was 18.9 ± 5.8 days; in data set [1] (Dose 2.5 mg/kg, 2.5 mg/kg), 14.5 ± 2.5 days and 15.5 ± 1.4 days and 13.0 ± 3.1 days and 14.8 ± 2.7 days; in data set [1] (Dose 5 mg/kg, 5 mg/kg) it was 16.3 ± 1.2 days and 18.2 ± 0.4 days and 18.8 ± 4.3 days; in data set [1] (Dose 7.5 mg/kg, 7.5 mg/kg), 19.0 ± 8.7 days and 19.2 ± 3.0 days and 20.2 ± 4.8 days and 18.7 ± 3.1 days. Moreover, the “T/C (%)” value in data set [1] (Dose 0.5 mg/kg) is 225%; in data set [1] (Dose 2.5 mg/kg, 2.5 mg/kg) it was 175% and 191% and 181%; in data set [1] (Dose 5 mg/kg, 5 mg/kg), 201% and 214% and 232%; in data set [1] (Dose 7.5 mg/kg, 7.5 mg/kg), 229% and 237% and 238% and 231%. Also, the Survival rate in data set [1] (Dose 0.5 mg/kg) was 0/6; in data set [1] (Dose 2.5 mg/kg), 0/6; in data set [1] (Dose 5 mg/kg), 0/6; in data set [1] (Dose 7.5 mg/kg, 7.5 mg/kg), 1/6 and 0/6.

For `N.N.O=C([O-])C1(C(=O)[O-])CCC1.[Pt+2]` [C B D C A, cis-diammine-1,1-cyclobutanedicarboxylate platinum(II), reference compound], the “Survival days (mean ± SD)” value in data set [1] (Dose 1 mg/kg) was found to be 8.3 ± 0.5 days; in data set [1] (Dose 10 mg/kg), 9.3 ± 0.5 days; in data set [1] (Dose 25 mg/kg), 10.1 ± 1.3 days; in data set [1] (Dose 50 mg/kg), 13.1 ± 2.3 days; in data set [1] (Dose 100 mg/kg), 14.1 ± 3.7 days; in data set [1] (Dose 200 mg/kg), 9.6 ± 0.7 days. Moreover, the “T/C (%)” value in data set [1] (Dose 1 mg/kg) is reported as 98%; in data set [1] (Dose 10 mg/kg), 109%; in data set [1] (Dose 25 mg/kg) it was 119%; in data set [1] (Dose 50 mg/kg), 156%; in data set [1] (Dose 100 mg/kg), 166%; in data set [1] (Dose 200 mg/kg) it was 113%. In addition, the Survival rate in data set [1] (Dose 1 mg/kg), in data set [1] (Dose 10 mg/kg), in data set [1] (Dose 25 mg/kg), in data set [1] (Dose 50 mg/kg), in data set [1] (Dose 100 mg/kg) and in data set [1] (Dose 200 mg/kg) was 0/10 throughout.

`CC1(C(=O)[O][Pt][O]C(=O)C2(C)CCC3(C)CCC4(C)C(=CC(=O)C5C6(C)CCC(O)C(C)(C)C6CCC54C)C3C2)CCC2(C)CCC3(C)C(=CC(=O)C4C5(C)CCC(O)C(C)(C)C5CCC43C)C2C1.NC1CCCCC1N.O.O.O.O` (stereo not drawn) [XXXV-1, Bis(β-glycyrrhetinato)(trans-ℓ-dach)platinum(II)-tetrahydrate] displayed an LD50 values in the data set with Slc:ICR mice of more than 150 mg/kg.

On to `NC1CCCCC1N.O=C([O][Pt][O]C(=O)C1(O)CC(O)C(O)C(O)C1)C1(O)CC(O)C(O)C(O)C1` [XXXII-1, Bis(lR,3R,4R,5R-tetrahydroxycyclohexanecarboxylato)-(trans-ℓ-dach)platinum(II)], for which the LD50 values in the data set with Slc:ICR mice is reported as more than 200 mg/kg.

The molecule `CC1(C)CC(=O)C=C(C(=O)[O-])O1.CC1(C)CC(=O)C=C(C(=O)[O-])O1.NC1CCCCC1N.[Pt+2]` [XXV-1, bis(3,4-dihydro-2,2-dimethyl-4-oxo-2H-pyrane-6-carboxylato) (trans-k-dach)platinum(II)] returned an LD50 values with Slc:ICR mice of 192 mg/kg.

Consider `NC1CCCCC1N.O=C([O-])c1ccc(=O)oc1.O=C([O-])c1ccc(=O)oc1.[Pt+2]` [XXII-1, bis(2-pyrone-5-carboxylato)(trans-ℓ-dach)platinum(II)], for which the “Survival days (mean ± SD)” value in data set [1] (Dose 1 mg/kg, 1 mg/kg) was 9.0 ± 0.9 days and 11.3 ± 0.8 days; in data set [1] (Dose 50 mg/kg, 50 mg/kg) it was 15.2 ± 3.1 days and 17.8 ± 2.8 days; in data set [1] (Dose 100 mg/kg, 100 mg/kg), 20.7 ± 7.2 days and 12.3 ± 2.7 days. Moreover, the “T/C (%)” value in data set [1] (Dose 1 mg/kg, 1 mg/kg) was 108% and 140%; in data set [1] (Dose 50 mg/kg, 50 mg/kg) it was 183% and 220%; in data set [1] (Dose 100 mg/kg, 100 mg/kg) it was 249% and 152%. Besides, the Survival rate in data set [1] (Dose 1 mg/kg) is 0/6; in data set [1] (Dose 10 mg/kg, 10 mg/kg), 0/6 and 2/6; in data set [1] (Dose 25 mg/kg, 25 mg/kg), 0/6 and 3/6; in data set [1] (Dose 50 mg/kg) it was 0/6; in data set [1] (Dose 100 mg/kg, 100 mg/kg) it was 1/6 and 0/6; in data set [1] (Dose 200 mg/kg), 0/6. In the data set on Slc:ICR mice, this molecule displayed an LD50 values of more than 200 mg/kg.

`NC1CCCCC1N.O=C(CN1C(=O)c2ccccc2C1=O)NCC(=O)[O][Pt][O]C(=O)CNC(=O)CN1C(=O)c2ccccc2C1=O` [XXVI-1, Bis(phthaloylglycylglycinato)(trans-ℓ-dach)-platinum(II)] registered an LD50 values in the data set on Slc:ICR mice of more than 200 mg/kg.

In the case of “2-Propenylacrylate-hydroxo(trans-ℓ-dach)platinum(II) [XXXI-2]”, in the data set with Slc:ICR mice, the LD50 values is reported as more than 200 mg/kg.

“N-(4-methoxycarbonylphenyl)maleamido-hydroxo(trans-A-dach)platinum(II) [XXIX-3]” yielded an LD50 values with Slc:ICR mice of 48 mg/kg.

The molecule `O=C(C=Cc1ccc(O)cc1)[O][Pt]1([OH])[NH]C2CCCCC2[NH]1` (stereo not drawn) [XXXI-4, β-(4-hydroxyphenyl)acrylate-hydroxo(trans-ℓ-dach)-platinum(II)] registered an LD50 values in the data set on Slc:ICR mice of 117 mg/kg.

With `O=C(C=Cc1ccc(C(F)(F)F)cc1)[O][Pt]1([OH])[NH]C2CCCCC2[NH]1` (stereo not drawn) [XXXI-5, β-(4-trifluourmethylphenyl)acrylate-hydroxo(trans-ℓ-dach)platinum(II)], the LD50 values with Slc:ICR mice was more than 200 mg/kg.

In the data set with Slc:ICR mice, `CCOC(=O)CNC(=O)C=CC(=O)[O-].NC1CCCCC1N.[OH-].[Pt+2]` [XXIX-1, N-(ethoxycarbonylmethyl)maleamido-hydroxo(trans-ℓ- dach)platinum(II)] registered an LD50 values of more than 200 mg/kg.

In the data set with Slc:ICR mice, `O=C([O][Pt]1([O]C(=O)c2ccc(N3C(=O)C=CC3=O)cc2)[NH]C2CCCCC2[NH]1)c1ccc(N2C(=O)C=CC2=O)cc1` (stereo not drawn) [XXVIII-1, Bis[N-(4-carboxyphenyl)maleimido](trans-ℓ-dach)-platinum(II)] gave an LD50 values of 70 mg/kg.

Turning to `COCCOCC(=O)[O][Pt][O]C(=O)COCCOC.NC1CCCCC1N` [XXVII-1, Bis(methoxyethoxymethylcarboxylato)(trans-ℓ-dach)-platinum(II)], the LD50 values with Slc:ICR mice amounted to 50 mg/kg.

In turn, `NC1CCCCC1N.O=C([O-])C=CC(=O)Nc1cccc(O)c1.[OH-].[Pt+2]` [XXIX-4, N-(3-hydroxyphenyl)maleamido-hydroxo(trans-ℓ-dach)-platinum(II)] registered an LD50 values in the data set on Slc:ICR mice of 62 mg/kg.

In the data set with Slc:ICR mice, `COC(=O)C(Cc1ccccc1)NC(=O)C=CC(=O)[O-].NC1CCCCC1N.[OH-].[Pt+2]` (stereo not drawn) [XXIX-2, N-(dℓ-2-phenyl-1-methoxycarbonylethyl)maleamido-hydroxo(trans-i-dach)platinum(II)] had an LD50 values of more than 200 mg/kg.

In turn, “Bis(2-propenylacrylate)(trans-ℓ-dach)platinum(II) [XXX-1]” registered an LD50 values with Slc:ICR mice of 77 mg/kg.

In the data set with Slc:ICR mice, “2-Furanacrylate-hydroxo(trans-i-dach)platinum(II) [XXXI-3]” displayed an LD50 values of more than 200 mg/kg.
